We go through three molecules from patent US9234050B2, “Chitosan derivatives to treat animals or optimize animal health” (priority 2008, dated 2016).

The test system of test [1] is P. multocida (ATCC 11039). The conditions noted are these: for Bacitracin (log reduction alone): BAC 32 μg/mL.
Test [2] concerns S. enterica (ATCC 700720).
The test system of test [3] is C. perfringens (ATCC 12919). Type of test: cell-based.
A short description of test [4]: Poultry study in feed (weight gain). Type of test: in vivo, chicks. Conditions: dosage 55 mg/kg in feed; treated feed fed for 8 days. The text has this:
Various doses of two different functionalized chitosan-arginines were mixed in feed, both originally 84% degree of deacetylation. “10% functionalized” has a MW of 39 kDa, 12% functionalized, % DDA=82 and polydispersity index (PDI) of 1.5. “30% functionalized” has a MW of 27 kDa, 26% functionalized, % DDA=82 and polydispersity index (PDI) of 1.7. Dosing of feed may be irregular due to challenges in mixing extremely small quantities of material uniformly (sprayed on cornmeal from water solution, mixed with feedmeal). Twelve replicate pens of five chicks were used for each treatment. Treated feed was fed for 8 days, and weight gain and feed conversion were examined after 21 days (comparison with day 1). Awt21 is the average weight gain after 21 days and P Diff is the statistical P value between the measured and control.

Read-outs that look alike come from different tables or passages of the source. Where a SMILES comes first, the peptide text is derived from it. Bridges are numbered along the chain shown (N, C = ends). [ ]: non-standard residue; d: D form. The star is where a group is joined. Ileψ(thiazoline)Cys = CC[C@H](C)[C@H](N)C1=N[C@H](C(=O)*)CS1; dOrn = NCCC[C@@H](N)C(=O)O

For `CC[C@H](C)[C@H](N)C1=N[C@H](C(=O)N[C@@H](CC(C)C)C(=O)N[C@H](CCC(=O)O)C(=O)N[C@H](C(=O)N[C@H]2CCCCNC(=O)[C@H](CC(N)=O)NC(=O)[C@@H](CC(=O)O)NC(=O)[C@H](Cc3cnc[nH]3)NC(=O)[C@@H](Cc3ccccc3)NC(=O)[C@H]([C@@H](C)CC)NC(=O)[C@@H](CCCN)NC2=O)[C@@H](C)CC)CS1` [Bacitracin] ({Ileψ(thiazoline)Cys}-L[dE]IK[dOrn]I[dF]H[dD]N; lactam 4-C), the “Bacitracin (log reduction alone)” value came out at 0 log in test [1] (Assay 1); 0.2 log in test [1] (Assay 2); 0.08 log in test [2] (Assay 1, BAC 4 μg/mL); 0.08 log in test [2] (Assay 1, BAC 8 μg/mL); 0.2 log in test [2] (Assay 2, BAC 2 μg/mL); 0 log in test [2] (Assay 2, BAC 4 μg/mL). This molecule yielded a bactericidal concentration in test [1] (P. multocida (ATCC 11039)) of over 128 µg/mL.
In the case of `CN(C)[C@@H]1C(O)=C(C(N)=O)C(=O)[C@@]2(O)C(O)=C3C(=O)c4c(O)cccc4[C@@](C)(O)[C@H]3C[C@@H]12` [Tetracycline], the “Tetracycline (log reduction alone)” value in test [3] (Assay 1, TET 0.05 μg/mL) came out at 0.1 log; in test [3] (Assay 2, TET 0.2 μg/mL), 0.1 log.
Penicillin: the “Awt21 (average weight gain after 21 days)” value in test [4] turned out to be 0.852 kg.
